In patent publication US20090118332A1, “Therapeutic Agents - 551” (AstraZeneca AB, priority 2006, published 2009):

Molecular target: T1, human Fatty Acid Synthase (Homo sapiens, UniProt P49327)
T1 construct: made in house
Assay: Human FAS enzyme assay (decrease in NADPH fluorescence)
Type: biochemical
Details: % inhibition at a concentration of 100 μmolar
Description: Human and Rat FAS Enzyme Assay.
Fatty acid synthase is an enzyme complex that harbours seven enzymatic activities catalysing the reductive synthesis of long chain fatty acids from acetyl CoA and malonyl CoA to palmitate. When acetyl CoA and malonyl CoA are forming palmitate NADPH is consumed forming NADP. Since NADPH is fluorescent but not NADP the reaction can be measured by analysing the decrease in fluorescence.
Compounds were added to a black 384 well plate (Matrix) in a volume of 5 μl consisting of 20% DMSO and 80% Tris buffer pH 7.5, at a top concentration of 1 mM. NADPH, 30 μl of 166.6 μM, formulated in assay buffer (0.1M Tris ph7.5, 0.1 mM EDTA, 1 mM glutathione, 0.05% BSA), was then added to all of the wells of the plate. Fatty acid synthase Human or rat enzyme (0.4 μg, produced in house), dissolved in 20 mM Tris/HCl pH 7.5, 5 mM BOG, 1 mM TCEP, 10% glycerol, 1 mM EDTA, 150 mM NaCl, was then added to the plate in a volume of 10 μl. Enzyme was added to all but the last two columns of the plate, to which, 10 μl of assay buffer was added (0.1M Tris ph7.5, 0.1 mM EDTA, 1 mM glutathione, 0.05% BSA) to provide a no enzyme assay control. Following a 15-minute incubation period, at room temperature, the plates were read on an Envision plate reader using 340 nm excitation and 460 nm emission filters. This served as a time zero background read. Substrates (an equal mix of both malonyl and acetyl CoA) were then added to the plates in a total volume of 5 μl. The concentrations of malonyl and acetyl CoA in the mixture were 500 μM and 150 μM respectively. Both were prepared as 10 mM stock solutions in distilled water and were subsequently diluted to working concentrations in assay buffer. Plates were then incubated for a further 60 minutes, at room temperature, before being read again on the Envision reader using the same parameters as previously used. The data was analysed by subtracting the background time zero data from that generated following the final 60 minute incubate and the percent inhibition compared to the maximum and minimum assay controls was determined. Sigmoid curves were fitted using Origin 7.5 Client software and IC50 values were determined.

T1 sequence (P49327 whole entry): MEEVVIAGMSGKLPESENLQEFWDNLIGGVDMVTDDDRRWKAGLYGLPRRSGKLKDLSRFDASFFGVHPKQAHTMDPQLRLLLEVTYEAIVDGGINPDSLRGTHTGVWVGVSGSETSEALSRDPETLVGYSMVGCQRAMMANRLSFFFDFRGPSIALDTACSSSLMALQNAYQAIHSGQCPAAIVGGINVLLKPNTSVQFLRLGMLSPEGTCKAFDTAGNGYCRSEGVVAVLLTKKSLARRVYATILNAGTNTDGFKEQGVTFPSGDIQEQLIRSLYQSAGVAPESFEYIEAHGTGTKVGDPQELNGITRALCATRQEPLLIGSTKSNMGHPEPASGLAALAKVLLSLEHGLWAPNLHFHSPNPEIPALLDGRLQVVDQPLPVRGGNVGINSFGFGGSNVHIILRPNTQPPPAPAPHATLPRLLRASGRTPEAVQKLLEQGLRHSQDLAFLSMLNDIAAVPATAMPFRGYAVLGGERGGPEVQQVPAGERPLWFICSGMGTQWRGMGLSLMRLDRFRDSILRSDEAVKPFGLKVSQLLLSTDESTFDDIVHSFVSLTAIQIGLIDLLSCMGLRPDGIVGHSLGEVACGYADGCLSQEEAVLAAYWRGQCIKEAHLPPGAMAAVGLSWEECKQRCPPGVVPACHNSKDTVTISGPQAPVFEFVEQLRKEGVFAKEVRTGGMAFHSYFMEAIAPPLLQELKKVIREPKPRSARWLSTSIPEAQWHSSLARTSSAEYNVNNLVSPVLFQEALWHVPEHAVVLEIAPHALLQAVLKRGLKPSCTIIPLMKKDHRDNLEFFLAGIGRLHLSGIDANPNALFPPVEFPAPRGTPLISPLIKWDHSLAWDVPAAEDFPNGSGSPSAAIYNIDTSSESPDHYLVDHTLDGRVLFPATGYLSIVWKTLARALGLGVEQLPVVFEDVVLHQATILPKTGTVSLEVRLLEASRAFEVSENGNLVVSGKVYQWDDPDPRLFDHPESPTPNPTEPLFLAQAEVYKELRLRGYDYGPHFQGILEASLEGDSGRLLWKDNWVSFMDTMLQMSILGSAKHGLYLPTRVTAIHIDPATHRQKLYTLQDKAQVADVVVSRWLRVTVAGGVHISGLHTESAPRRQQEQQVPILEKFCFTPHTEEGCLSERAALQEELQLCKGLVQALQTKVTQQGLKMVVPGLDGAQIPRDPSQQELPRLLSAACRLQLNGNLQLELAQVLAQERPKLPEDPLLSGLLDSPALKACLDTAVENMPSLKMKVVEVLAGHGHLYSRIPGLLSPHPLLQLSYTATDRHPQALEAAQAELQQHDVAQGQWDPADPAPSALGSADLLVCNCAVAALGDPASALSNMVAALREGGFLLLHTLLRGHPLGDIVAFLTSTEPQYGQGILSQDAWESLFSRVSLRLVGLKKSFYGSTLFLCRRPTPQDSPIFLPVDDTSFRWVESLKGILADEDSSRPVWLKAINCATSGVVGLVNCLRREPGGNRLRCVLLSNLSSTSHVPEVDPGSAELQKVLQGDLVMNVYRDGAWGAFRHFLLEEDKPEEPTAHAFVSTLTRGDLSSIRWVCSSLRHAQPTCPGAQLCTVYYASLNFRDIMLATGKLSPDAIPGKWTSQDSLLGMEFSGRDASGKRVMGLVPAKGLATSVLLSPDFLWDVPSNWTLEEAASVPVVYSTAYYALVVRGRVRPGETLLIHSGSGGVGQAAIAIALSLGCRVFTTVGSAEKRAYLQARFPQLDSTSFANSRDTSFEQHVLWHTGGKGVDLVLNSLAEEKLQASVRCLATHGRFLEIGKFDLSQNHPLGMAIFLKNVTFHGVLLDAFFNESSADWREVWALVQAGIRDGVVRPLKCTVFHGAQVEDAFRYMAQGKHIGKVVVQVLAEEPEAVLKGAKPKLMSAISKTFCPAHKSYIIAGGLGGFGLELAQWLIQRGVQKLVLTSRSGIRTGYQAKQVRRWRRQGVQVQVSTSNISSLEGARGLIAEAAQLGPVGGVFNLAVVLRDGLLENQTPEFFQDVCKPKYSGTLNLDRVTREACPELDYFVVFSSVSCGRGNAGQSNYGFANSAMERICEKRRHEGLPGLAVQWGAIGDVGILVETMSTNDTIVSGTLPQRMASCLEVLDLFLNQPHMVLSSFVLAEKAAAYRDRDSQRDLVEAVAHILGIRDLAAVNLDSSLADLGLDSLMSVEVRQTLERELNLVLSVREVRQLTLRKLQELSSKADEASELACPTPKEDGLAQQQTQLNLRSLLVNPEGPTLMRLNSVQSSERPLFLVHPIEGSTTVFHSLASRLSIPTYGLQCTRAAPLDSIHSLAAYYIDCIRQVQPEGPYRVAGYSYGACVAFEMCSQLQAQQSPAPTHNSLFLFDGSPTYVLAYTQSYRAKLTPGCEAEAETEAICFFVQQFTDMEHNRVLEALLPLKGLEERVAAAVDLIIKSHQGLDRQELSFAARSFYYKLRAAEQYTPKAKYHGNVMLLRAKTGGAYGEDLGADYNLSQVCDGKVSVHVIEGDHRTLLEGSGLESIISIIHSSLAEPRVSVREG

SMILES	inhibition at 100 µM
CC(C)NC(=O)Nc1cc(C(=O)N2CCC(c3ccc(C#N)cc3)CC2)ccc1C#N [Example 22, 3-[2-cyano-5-[4-(4-cyanophenyl)piperidine-1-carbonyl]phenyl]-1-propan-2-yl-urea]	86.8%
Cc1ccc(NC(=O)NCc2ccccc2F)cc1C(=O)N1CCC(c2ccc(C#N)cc2)CC1 [Example 23, 1-[3-[4-(4-cyanophenyl)piperidine-1-carbonyl]-4-methyl-phenyl]-3-[(2-fluorophenyl)methyl]urea]	77%
Cc1ccc(NC(=O)N(C)Cc2ccccc2)cc1C(=O)N1CCC(c2ccc(C#N)cc2)CC1 [Example 24, 1-benzyl-3-[3-[4-(4-cyanophenyl)piperidine-1-carbonyl]-4-methyl-phenyl]-1-methyl-urea]	78.1%
Cc1ccc(NC(=O)NCc2cccnc2)cc1C(=O)N1CCC(c2ccc(C#N)cc2)CC1 [Example 25, 1-[3-[4-(4-cyanophenyl)piperidine-1-carbonyl]-4-methyl-phenyl]-3-(pyridin-3-ylmethyl)urea]	79.7%
Cc1ccc(NC(=O)NCCc2ccccc2)cc1C(=O)N1CCC(c2ccc(C#N)cc2)CC1 [Example 26, 1-[3-[4-(4-cyanophenyl)piperidine-1-carbonyl]-4-methyl-phenyl]-3-phenethyl-urea]	82.9%
Cc1ccc(NC(=O)NCC2CCOCC2)cc1C(=O)N1CCC(c2ccc(C#N)cc2)CC1 [Example 27, 1-[3-[4-(4-cyanophenyl)piperidine-1-carbonyl]-4-methyl-phenyl]-3-(oxan-4-ylmethyl)urea]	80.7%
Cc1ccc(NC(=O)N2CCOCC2)cc1C(=O)N1CCC(c2ccc(C#N)cc2)CC1 [Example 28, N-[3-[4-(4-cyanophenyl)piperidine-1-carbonyl]-4-methyl-phenyl]morpholine-4-carboxamide]	83.1%
Cc1ccc(NC(=O)N2CCCC2)cc1C(=O)N1CCC(c2ccc(C#N)cc2)CC1 [Example 29, N-[3-[4-(4-cyanophenyl)piperidine-1-carbonyl]-4-methyl-phenyl]pyrrolidine-1-carboxamide]	79.6%
Cc1ccc(C(=O)N2CCC(c3ccc(C#N)cc3)CC2)cc1NC(=O)NC(C)(C)C [Example 31, 1-[5-[4-(4-cyanophenyl)piperidine-1-carbonyl]-2-methyl-phenyl]-3-tert-butyl-urea]	83.3%
Cc1ccc(C(=O)N2CCC(c3ccc(C#N)cc3)CC2)cc1NC(=O)NCc1ccccc1 [Example 32, 3-benzyl-1-[5-[4-(4-cyanophenyl)piperidine-1-carbonyl]-2-methyl-phenyl]urea]	95.5%
Cc1ccc(C(=O)N2CCC(c3ccc(C#N)cc3)CC2)cc1NC(=O)NCc1ccc(C#N)cc1 [Example 33, 3-[(4-cyanophenyl)methyl]-1-[5-[4-(4-cyanophenyl)piperidine-1-carbonyl]-2-methyl-phenyl]urea]	91.8%
Cc1ccc(C(=O)N2CCC(c3ccc(C#N)cc3)CC2)cc1NC(=O)NCc1ccccc1F [Example 34, 1-[5-[4-(4-cyanophenyl)piperidine-1-carbonyl]-2-methyl-phenyl]-3-[(2-fluorophenyl)methyl]urea]	86.5%
Cc1ccc(C(=O)N2CCC(c3ccc(C#N)cc3)CC2)cc1NC(=O)NCc1cccnc1 [Example 35, 1-[5-[4-(4-cyanophenyl)piperidine-1-carbonyl]-2-methyl-phenyl]-3-(pyridin-3-ylmethyl)urea]	91.6%

Now from value to compound:

inhibition at 100 µM	SMILES
93.8%	Cc1ccc(C(=O)N2CCC(c3ccc(C#N)cc3)CC2)cc1NC(=O)NCc1ccncc1 [Example 36, 1-[5-[4-(4-cyanophenyl)piperidine-1-carbonyl]-2-methyl-phenyl]-3-(pyridin-4-ylmethyl)urea]
74.3%	Cc1ccc(NC(=O)N[C@H](C)c2ccccc2)cc1C(=O)N1CCC(c2ccc(C#N)cc2)CC1 [Example 37, 3-[3-[4-(4-cyanophenyl)piperidine-1-carbonyl]-4-methyl-phenyl]-1-[(1R)-1-phenylethyl]urea]
76.6%	Cc1ccc(NC(=O)N[C@@H](C)c2ccccc2)cc1C(=O)N1CCC(c2ccc(C#N)cc2)CC1 [Example 38, 3-[3-[4-(4-cyanophenyl)piperidine-1-carbonyl]-4-methyl-phenyl]-1-[(1S)-1-phenylethyl]urea]
79.1%	Cc1ccc(C(=O)N2CCC(O)(c3ccc(Br)cc3)CC2)cc1NC(=O)NC(C)C [Example 39, 1-[5-[4-(4-bromophenyl)-4-hydroxy-piperidine-1-carbonyl]-2-methyl-phenyl]-3-propan-2-yl-urea]
71.5%	Cc1ccc(C(=O)N2CCC(O)(c3ccc(Br)cc3)CC2)cc1NC(=O)NCc1ccccc1 [Example 40, 3-benzyl-1-[5-[4-(4-bromophenyl)-4-hydroxy-piperidine-1-carbonyl]-2-methyl-phenyl]urea]
94.4%	Cc1ccc(C(=O)N2CCC(c3ccc(C#N)cc3)CC2)cc1NC(=O)NC1CCN(Cc2ccccc2)CC1 [Example 41, 3-(1-benzyl-4-piperidyl)-1-[5-[4-(4-cyanophenyl)piperidine-1-carbonyl]-2-methyl-phenyl]urea]
83.8%	Cc1ccc(C(=O)N2CCC(c3ccc(C#N)cc3)CC2)cc1NC(=O)NCC(C)C [Example 42, 1-[5-[4-(4-cyanophenyl)piperidine-1-carbonyl]-2-methyl-phenyl]-3-(2-methylpropyl)urea]
88.3%	C#CCNC(=O)Nc1cc(C(=O)N2CCC(c3ccc(C#N)cc3)CC2)ccc1C [Example 43, 1-[5-[4-(4-cyanophenyl)piperidine-1-carbonyl]-2-methyl-phenyl]-3-prop-2-ynyl-urea]
87.9%	COc1cc(CNC(=O)Nc2cc(C(=O)N3CCC(c4ccc(C#N)cc4)CC3)ccc2C)cc(OC)c1OC [Example 44, 1-[5-[4-(4-cyanophenyl)piperidine-1-carbonyl]-2-methyl-phenyl]-3-[(3,4,5-trimethoxyphenyl)methyl]urea]
91.8%	COC(=O)CCNC(=O)Nc1cc(C(=O)N2CCC(c3ccc(C#N)cc3)CC2)ccc1C [Example 45, methyl 3-[[5-[4-(4-cyanophenyl)piperidine-1-carbonyl]-2-methyl-phenyl]carbamoylamino]propanoate]
90.3%	CC(C)NC(=O)Nc1cccc(C(=O)N2CCC(c3ccc(C#N)cc3)CC2)c1 [Example 46, 3-[3-[4-(4-cyanophenyl)piperidine-1-carbonyl]phenyl]-1-propan-2-yl-urea]
77.4%	Cc1ccc(NC(=O)NCc2cccc(C#N)c2)cc1C(=O)N1CCC(c2ccc(C#N)cc2)CC1 [Example 47, 3-[(3-cyanophenyl)methyl]-1-[3-[4-(4-cyanophenyl)piperidine-1-carbonyl]-4-methyl-phenyl]urea]
93.7%	Cc1ccc(NC(=O)N[C@H]2CC[C@@H](O)CC2)cc1C(=O)N1CCC(c2ccc(C#N)cc2)CC1 [Example 48, 1-[3-[4-(4-cyanophenyl)piperidine-1-carbonyl]-4-methyl-phenyl]-3-cis-(4-hydroxycyclohexyl)urea]
98.1%	Cc1ccc(NC(=O)N[C@H]2CC[C@H](O)CC2)cc1C(=O)N1CCC(c2ccc(C#N)cc2)CC1 [Example 49, 1-[3-[4-(4-cyanophenyl)piperidine-1-carbonyl]-4-methyl-phenyl]-3-trans-(4-hydroxycyclohexyl)urea]
81.2%	Cc1ccc(C(=O)N2CCC(O)(c3ccc(C#N)cc3)CC2)cc1NC(=O)NC(C)C [Example 50, 1-[5-[4-(4-cyanophenyl)-4-hydroxy-piperidine-1-carbonyl]-2-methyl-phenyl]-3-propan-2-yl-urea]
101%	Cc1ccc(C(=O)N2CCC(c3ccc(C#N)cc3)CC2)cc1NC(=O)NCCCC(=O)OC(C)(C)C [Example 51, tert-butyl 4-[[5-[4-(4-cyanophenyl)piperidine-1-carbonyl]-2-methyl-phenyl]carbamoylamino]butanoate]
94.4%	Cc1ccc(C(=O)N2CCC(c3ccc(C#N)cc3)CC2)cc1NC(=O)NCc1ccccn1 [Example 52, 1-[5-[4-(4-cyanophenyl)piperidine-1-carbonyl]-2-methyl-phenyl]-3-(pyridin-2-ylmethyl)urea]
90.8%	CCC(CC)NC(=O)Nc1cc(C(=O)N2CCC(c3ccc(C#N)cc3)CC2)ccc1C [Example 53, 3-[5-[4-(4-cyanophenyl)piperidine-1-carbonyl]-2-methyl-phenyl]-1-pentan-3-yl-urea]
92.2%	Cc1cccc(CNC(=O)Nc2cc(C(=O)N3CCC(c4ccc(C#N)cc4)CC3)ccc2C)c1 [Example 54, 3-[5-[4-(4-cyanophenyl)piperidine-1-carbonyl]-2-methyl-phenyl]-1-[(3-methylphenyl)methyl]urea]
